Earlier results in patent publication US20100143341A1, “THIENOPYRIMIDINES FOR PHARMACEUTICAL COMPOSITIONS” (DEVELOGEN AKTIENGESELLSCHAFT, priority 2005, published 2010).

Tests used:
human Mnk2 protein = human Mnk2 protein (Homo sapiens, UniProt Q9HBH9); conditions: described in WO 02/103361
phosphorylated eIF4E = conditions: cell culture cells transfected with Mnk2 (Mnk2a or Mnk2b) or Mnk1

Chain of human Mnk2 protein (Q9HBH9 whole entry): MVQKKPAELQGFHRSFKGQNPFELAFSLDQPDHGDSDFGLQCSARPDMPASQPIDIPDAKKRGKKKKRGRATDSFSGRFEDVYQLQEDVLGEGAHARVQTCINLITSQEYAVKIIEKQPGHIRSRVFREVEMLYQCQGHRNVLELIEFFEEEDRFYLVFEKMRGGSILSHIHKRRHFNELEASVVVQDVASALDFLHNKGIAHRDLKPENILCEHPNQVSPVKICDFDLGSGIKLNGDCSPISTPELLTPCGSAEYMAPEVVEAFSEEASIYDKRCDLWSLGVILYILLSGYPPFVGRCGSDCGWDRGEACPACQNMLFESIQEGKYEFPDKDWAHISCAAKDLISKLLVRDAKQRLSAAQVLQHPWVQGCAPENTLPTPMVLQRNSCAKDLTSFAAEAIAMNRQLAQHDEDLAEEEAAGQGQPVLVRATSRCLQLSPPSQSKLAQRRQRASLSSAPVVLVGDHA

SMILES	binds the human Mnk2 protein (human Mnk2 protein)	reduction of phosphorylated eIF4E (phosphorylated eIF4E)
COC(=O)c1ccc(O)cc1 [4-hydroxybenzoic acid methyl ester]	binds	–
Nc1ncnc2n[nH]c(Nc3ccc(F)cc3)c12 [CGP57380]	–	strong reduction
